According to US20220409510A1, “Polypeptides And Methods For Improving Skin Conditions” (Interk Peptide Therapeutics Limited, priority 2018, published 2022):
Non-standard residues stand in square brackets, D forms with d. No end group written: not given here.

Experiments:
[1] = test system: wound (skin punch, ID 12 mm); assay: Murine wound model, percentage closure of the wound; type: in vivo, ICR mice; conditions: topical 10 ug per mouse daily for 10 consecutive days
Source text: FIGS. 1 and 2 illustrate the effect of polypeptides IK34720 (SEQ ID NO: 3—RSKAKNPLYRRRRRRRRR) (FIG. 1) and the dextro-reverso sequence IK236770 (SEQ ID NO: 4—rrrrrrrrrylpnkaksr) (FIG. 2), on wound healing over 10 days in a murine wound model in accordance with the following protocol.
Three groups of 8 male ICR mice with a mean weight of 22 g (±2 g) were used in the present study. The animals were housed in individual cages during the study. Under isoflurane gas anaesthesia, the shoulder and back region of each animal was shaved and a sharp punch (ID 12 mm) was used to induce a wound by removing the skin, including panniculus carnosus and adherent tissues on Day 1.
Following induction of the wound the polypeptides IK34720 and IK236770 were topically administered to the site of the wound at a dosage of 10 μg per animal. […] An additional group which comprised the administration of Phosphate buffered Saline (PBS) at pH 7.4 was used as a negative control.
The wound healing was analysed on Days 5, 7, 9 and 11 by tracing the periphery of the wound onto clear plastic sheets with the wound area calculated by an Image analyzer ProPlus (Media Cybernetics, Version 4.5.0.29. The percentage closure of the wound (%) was calculated. Percentage closure of the wound was determined on 5, 7, 9 and 11. ANOVA and Dunnett's test were applied to test significant significance between the treated groups (peptide and positive control groups) and the negative control group at each time point of measurement. Differences were considered statistically significant at P<0.05, and are indicated by *.

[2] = test system: CPDs in human skin explants; assay: CPD formation in human skin explants after UV-irradiation; type: cell-based; conditions: 3 hrs post irradiation/treatment; Calcitriol 1 nM; IK34720 50, 250 or 500 uM; FIG. 12
Experimental: Human skin removed at elective surgery was cleaned, dissected and cut into pieces of approx. 5 mm×5 mm. Each piece was placed in a well of a 96 well plate, with individual plates prepared to assess the effects 3 hrs post treatment. All samples were performed in triplicate for each treatment. Skin was subjected to UV-radiation from solar-simulated UV source for 1.5 h (UVR), or non-irradiation (SHAM). Given that human skin is thicker than mouse skin, human skin explants were exposed to a radiation dose three times higher than that used for mouse skin, i.e., 20 J/cm2 versus 7 J/cm2, respectively, and the output spectrum of the laboratory solar simulator has previously been reported (Rybchyn MS et al, J Invest Dermatol. 2018 May; 138(5):1146-1156) and treated immediately after with a vehicle control, Calcitriol (1 nM) or the polypeptide IK34720 (SEQ ID NO: 3) at concentrations of 50 μM, 250 μM or 500 uM.
Samples harvested at 3 hrs were fixed, section, stained and quantified as described in Example 5.

dermal fibroblasts = assay: TBARS lipid peroxidation assay in UV irradiated dermal fibroblasts; type: cell-based; conditions: highest concentration (5 μM) of peptide; FIG. 19
Experimental: The ability of the polypeptide RSKAKNPLYRRRRRRRRR to alter UV-induced oxidative damage of cell-derived lipids was examined using the TBARS thiobarbituric acid-reactive substances (TBARS) lipid peroxidation assay.
After irradiation or sham-irradiation of dermal fibroblasts, supernatants (900 μL) were collected. In brief, 90 μL of butylated hydroxytoluene (2% w/w in ethanol) was added and samples kept frozen (−20° C.) until the TBARS assay. Petri dishes were washed twice with 1 mL of HBSS, cells scraped in 600 μL of water and 60 μL of 0.5% aqueous Triton X100 added to this solution, for protein determination carried out by the Lowry method (Lowry OH et al, J. Biol. Chem., 1951, 193:265-275). TBARS were fluorometrically assayed as described (Morlière P et al, Biochim. Biophys. Acta, 1991, 1084:261-268). Briefly, thawing samples were heated in the presence of thiobarbituric acid in acidic conditions, and TBARS extracted with 1-butanol and fluorometrically quantified (λexc=515 nm and λem=550 nm). Tetraethoxypropane, which quantitatively yields the malondialdehyde-thiobarbituric acid adduct in the assay conditions, was used for calibration. TBARS values, expressed in malondialdehyde (MDA) equivalents, were normalized to the cell protein for each Petri dish. Each TBARS determination was performed in triplicate (e.g., with three Petri dishes per data point).

MMP1 = MMP1 expression in human skin explants after UV-irradiation (immunohistochemistry); type: cell-based; conditions: 3 hrs post irradiation/treatment; Calcitriol 1 nM; IK34720 50, 250 or 500 uM; FIG. 17
Experimental: The effect of the polypeptide IK34720 (SEQ ID NO: 3) on MMP-1 activity in human skin was evaluated using the following protocol.
FIGS. 17 and 18 illustrate the effect of the polypeptide IK34720 (SEQ ID NO: 3) on MMP1 expression, in accordance with the following protocol.
Human skin (2× human explant tissues) removed at elective surgery was cleaned, dissected and cut into pieces of approx. 5mm×5mm. Each piece was placed in a well of a 96 well plate, with individual plates prepared to assess the effects 3 hrs post treatment. Skin was subjected to UV-radiation from solar-simulated UV source for 1.5 h (UVR), or non-irradiation (SHAM), and treated immediately after with a vehicle control, Calcitriol (1 nM) or the polypeptide IK34720 (SEQ ID NO: 3) at concentrations of 50 μM, 250 μM or 500 uM. In FIG. 17, IK50, IK250 and IK500 as μM concentrations refers to 15 μg, 75 μg and 150 μg of IK34720 per 120 μL culture medium/explant, respectively.
Samples harvested at 3 hrs were fixed, sectioned, immunohistochemically stained for MMP1 and quantified for MMP1 expression, by expressing epidermal area stained for MMP1 as a function of total epidermal area examined.

[3] = molecular target: T1, polypeptide IK34720 (RSKAKNPLYRRRRRRRRR)
T1 chain: RSKAKNPLYRRRRRRRRR

CCNC(=O)[C@H]1O[C@@H](n2cnc3c(N)nc(NCCc4ccc(CCC(=O)O)cc4)nc32)[C@H](O)[C@@H]1O [CGS-21680, reference compound]
wound closure percentage ([1]; Day 5 to Day 11, vs negative control (PBS)): increase wound healing compared to the negative control

C=C1/C(=C\C=C2/CCC[C@]3(C)[C@@H]([C@H](C)CCCC(C)(C)O)CC[C@@H]23)C[C@@H](O)C[C@@H]1O [Calcitriol, 1,25-dihydroxyvitamin D3, reference compound]
cells having CPDs (stained cells) [2]: fewer stained cells
significant difference in TRS (TBA reactive substances) between Sham and UV irradiation (dermal fibroblasts): not seen
cells staining for MMP-1 (MMP1): fewer stained cells

rrrrrrrrrylpnkaksr ([dR][dR][dR][dR][dR][dR][dR][dR][dR][dY][dL][dP][dN][dK][dA][dK][dS][dR]; also: retro-inverso) [IK236770]
wound healing (wound closure % percentage) ([1]; day 5, vs negative control): statistically significant increase in wound healing

B1: Human rheumatoid synovial fibroblast MMP-1 proenzyme, activated with APMA (protein)
chain: FVLTEGNPRWEQTHLTYRIENYTPDLPRADVDHAIEKAFQLWSNVTPLTFTKVSEGQADIMISFVRGDHRDNSPFDGPGGNLAHAFQPGPGIGGDAHFDEDERWTNNFREYNLHRVAAHELGHSLGLSHSTDIGALMYPSYTFSGDVQLAQDDIDGIQAIYGRSQNPVQPIGPQTPKACDSKLTFDAITTIRGEVMFFKDRFYMRTNPFYPEVELNFISVFWPQLPNGLEAAYEFADRDEVRFFKGNKYWAVQGQNVLHGYPKDIYSSFGFPRTVKHIDAALSEENTGKTYFFVANKYWRYDEYKRSMDPGYPKMIAHDFPGIGHKVDAVFMKDGFFYFFHGTRQYKFDPKTKRILTLQKANSWFNCRKN
MMP-1 activity in vitro: amount of Mca-Pro-Leu-Gly formed from the fluorogenic substrate Mca-Pro-Leu-Gly-Leu-Dap-Ala-Arg, read spectrofluorimetrically at 340 nm/400 nm [3]: inhibits MMP-1 activation in a dose dependent manner
